Test results reported in patent publication US20240391861A1, “PROCESS FOR THE RECOVERY OF MONOPOTASSIUM GLUCARATE AND GLUCARIC ACID” (Alliance for Sustainable Energy, LLC, priority 2021, published 2024).
Converted amounts (≈) assume the structure as drawn.

Tests used:
[1] = Reported pKa values of glucaric acid and molar speciation calculated from them; format: physicochemical; settings: at pH 3.6, calculated from reported pKa values
Text: The inset photo is the KGA precipitate from broth pH adjusted to 3.5 (left) and broth pH adjusted to 3.5 with acetone 25 wt. % acetone addition (right).

[2] = Enthalpy and entropy of dissolution from Van't Hoff plot of solubility versus temperature; format: physicochemical
Description: The enthalpy and entropy of dissolution of KGA and GA. The enthalpy and entropy of dissolution are calculated here using the solubility of KGA and GA in solutions of identical solvent composition as a function of temperature. The solubility of KGA and GA and related thermodynamic properties (enthalpy and entropy of dissolution) are important because they can be used for building a crystallization model and optimizing crystallization conditions in a large scale process. Accordingly, using the solubility data obtained for each compound (FIG. 2B), the enthalpy and entropy of dissolution of both KGA and GA were calculated using the Van't Hoff equation.
In Equation 1, x is the mole fraction of a compound in the solvent, Δ_dis H and Δ_dis S are the enthalpy and the entropy of dissolution, T is the absolute temperature, and R represents the ideal gas constant. The solubility of KGA or GA was measured by varying temperature to plot ln x versus 1/T, and the resulting values of enthalpy and entropy of dissolution was determined from the slope and the intercept, respectively.
The antisolvent loading in each mixture is the same as used in each purification process. Table 4 provides the dissolution enthalpy and entropy of both KGA and GA calculated from Eq. (1) using the linear fits in FIG. 5. […] The […] of GA solubility data yields a negative entropy of dissolution for GA. This could be because dissolved GA is in equilibrium with lactones, and they form dimers or organized structures that are represented by this value.

[3] = KGA Solubility Test (glucarate solubility at various pH in water and acetone/water, quantified by LC); settings: for solubility: 22 °C, thermodynamic from solid
Description: (§1) KGA Solubility Test: KGA solubility was quantified by adding excess KGA to UHP water and adjusting pH between 1-6 by addition of 2 M HCl or 2 M KOH with stirring. The samples were mixed, allowed to sit overnight, and then the pH was measured again. The samples were filtered, diluted with a pH 7 phosphate buffer to reduce lactonization and the KGA concentration was quantified by LC. Similarly, KGA solubility in a 25.2 wt. % acetone solution was measured by preparing KGA-saturated solution samples at −20° C., 22° C. and 40° C. and quantified by using the liquid chromatography (LC) method.
(§2) 15 μl samples were injected into a Phenomenex Luna C18(2) 5 μm, 150 mm×4.6 mm column at a temperature of 35° C. An isocratic mobile phase of 20 mM potassium phosphate at pH 7 was pumped at a flow rate of 0.65 mL/min for 7 min.

[4] = 300 K, cited from earlier work
[5] = GA Solubility Test (TGA mass balance of saturated solution); format: physicochemical; settings: 4° C.
Description: GA Solubility Test: Due to the lactonization potential of glucaric acid, the solubility was estimated using thermogravimetric analysis (TGA) based on the mass balance of the saturated solution. A sample of acetone-washed GA was dissolved in 3 mL of the IPA/water mixture (7:1 by mass) to excess, sonicated, and allowed to settle overnight at each of three temperatures: −20° C., 4° C. and 22° C. Next, the solutions were filtered at a pore size of 0.45 μm. These saturated solutions were dropped into an aluminum Differential Scanning calorimetry (DSC) pan and placed on dry ice to partially freeze them and slow the evaporation rate so that the mass of the total solution could be measured by TGA. The partially frozen solution was heated from room temperature at 5° C. per minute to 110° C. and held isothermally for 15 minutes to allow the solvent to evaporate. In this way, the mass of the remaining species in the pan was determined to μg precision. This was taken to be the total mass of GA that had dissolved in the solvent, including possible lactone products, in a catch-all method.

[6] = reported pKa value of glucaric acid; cited from earlier work
[7] = physchem; settings: pH 1.5, aqueous buffer, thermodynamic from solid
Description: as §1, §2

O=C(O)[C@@H](O)[C@@H](O)[C@H](O)[C@@H](O)C(=O)[O-].[K+] [KGA, monopotassium glucarate]
maximum concentration (molar fraction) of KGA form [1]: 55 mol % | AdisH ([2]; solvent Acetone 24.7 wt. %): 7.639 kcal/mol | AdisS ([2]; solvent Acetone 24.7 wt. %): 35.70 J/mol/K | solubility ([3]; pH 3.5, aqueous buffer): ~16 mg/mL | solubility ([3]; pH 3.5, aqueous with cosolvent or surfactant or cyclodextrin): ~8.1 mg/mL | additional reduction of solubility by adding acetone ([3]; acetone 25 wt. %, pH 3.5): 50% | solubility in broth ([3]; fermentation broth, pH 3.5, acetone (30 vol %)): almost zero | saturation limit in high purity water ([3]; high purity water, no pH adjustment): 0.06 M | solubility relative to the solubility of K2GA at pH 5.8 ([3]; pH 3.5): 13.5 mol %

O=C([O-])[C@@H](O)[C@@H](O)[C@H](O)[C@@H](O)C(=O)[O-].[K+].[K+] [K2GA, dipotassium glucarate]
solubility ([3]; aqueous buffer): > 120 mg/mL

O=C1O[C@H]([C@@H](O)C(=O)O)[C@H](O)[C@@H]1O [6,3-lactone, D-glucaro-6,3-lactone]
Rate constant k7 ([4]; 6,3-lactone → 1,4:6,3-dilactone (so in the source)): 0.000664 s⁻¹ | Rate constant k5 ([4]; 6,3-lactone → 1,4:6,3-dilactone): 0.000174 s⁻¹ | Rate constant k4 ([4]; 6,3-lactone → GA): 8.7e-05 s⁻¹

O=C1O[C@H]2[C@H](OC(=O)[C@@H]2O)[C@@H]1O [1,4:6,3-dilactone, D-glucaro-1,4:6,3-dilactone]
Rate constant k8 ([4]; 1,4:6,3-dilactone → 6,3-lactone (so in the source)): 5.01e-05 s⁻¹ | Rate constant k6 ([4]; 1,4:6,3-dilactone → 6,3-lactone): 0.00197 s⁻¹

O=C(O)[C@@H](O)[C@@H](O)[C@H](O)[C@@H](O)C(=O)O [GA, glucaric acid]
solubility in IPA-water lower than that in ACN-water [5]: 53% | solubility in IPA-water lower than that in water [5]: 77% | AdisH ([2]; solvent Isopropanol 87.5 wt. %): 0.88 kcal/mol | AdisS ([2]; solvent Isopropanol 87.5 wt. %): −40.78 J/mol/K | higher solubility than KGA (pH 1.5): 56% | solubility increase as pH is decreased (pH 3.1): about 55% | pKa1 [6]: 3.17 | pKa2 [6]: 3.96 | Rate constant k2 ([4]; GA → 1,4-lactone): 4.84e-05 s⁻¹ | Rate constant k3 ([4]; GA → 6,3-lactone): 5.52e-05 s⁻¹ | solubility [7]: 26 mg/mL (≈ 124 mM)

O=C(O)[C@@H](O)[C@H]1OC(=O)[C@H](O)[C@H]1O [1,4-lactone, D-glucaro-1,4-lactone]
Rate constant k1 ([4]; 1,4-lactone → GA): 7.04e-05 s⁻¹
